From patent publication US7214669B2, “Tetracycline derivatives and methods of use thereof” (Tetragenex Pharmaceuticals, Inc., priority 2001, dated 2007)
Where “and” joins values, the source holds several entries; their conditions need not be identical. Identical values can stand only once. Counter-ions that a name gives are not always drawn.

Tests used:
[1] = test system: RPMI-8226 human myeloma cancer cells; experiment: Membrane Invasion Culture System (MICS) chemo-invasion assay; assay type: cell-based; conditions: 24 hours, + = increased invasiveness
In short: (§1)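 Fifty thousand cells were seeded above a 35 μm laminin/collagen IV/gelatin barrier on a 10 μm-pore filter, with serum-free RPMI plus 50% fibroblast-conditioned medium below as chemoattractant. Compound at 1, 10 or 25 μg/ml, or DMSO vehicle, was present for 24 h. Invaded cells were collected, Wright-stained and counted over 5 fields.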

[2] = test system: MDA-MB-231 human breast cancer cells; experiment: as above; assay type: cell-based; conditions: 24 hours, + = increased invasiveness
In short: as §1

[3] = test system: C8161 human melanoma cells; experiment: as above; assay type: cell-based; conditions: 24 hours, + = increased invasiveness
In short: as §1

[4] = test system: PC-3 ML human prostate cancer cells; experiment: as above; assay type: cell-based; conditions: 24 hours, + = increased invasiveness
In short: as §1

[5] = test system: Arp-1 human myeloma cancer cells; experiment: as above; assay type: cell-based; conditions: 24 hours, + = increased invasiveness
In short: as §1

[6] = test system: Ark human myeloma cancer cells; experiment: as above; assay type: cell-based; conditions: 24 hours, + = increased invasiveness
In short: as §1

[7] = test system: MAT LyLu tumor; experiment: Dunning MAT LyLu tumor model, survival; assay type: in vivo, Copenhagen rats; conditions: for Surviving Number: 10/group, dosed by gavage
[8] = Dunning MAT LyLu tumor model, weekly body weight; assay type: in vivo; conditions: compared to the control group
[9] = molecular target: Human recombinant MMP14 (Homo sapiens, UniProt P50281); experiment: MMP14 (MTI-MMP) inhibition, 14C collagen release; assay type: biochemical; conditions: 35° C., 15 hours; read-out: MMP-14 inhibitory activity, IC50
[10] = molecular target: T1, Human recombinant MMP1 (Homo sapiens, UniProt P03956); experiment: MMP1 (Collagenase-1) inhibition, 14C collagen release; assay type: biochemical; conditions: 35° C., 5 hours; read-out: MMP-1 inhibitory activity, IC50
T1 sequence (P03956 100-469): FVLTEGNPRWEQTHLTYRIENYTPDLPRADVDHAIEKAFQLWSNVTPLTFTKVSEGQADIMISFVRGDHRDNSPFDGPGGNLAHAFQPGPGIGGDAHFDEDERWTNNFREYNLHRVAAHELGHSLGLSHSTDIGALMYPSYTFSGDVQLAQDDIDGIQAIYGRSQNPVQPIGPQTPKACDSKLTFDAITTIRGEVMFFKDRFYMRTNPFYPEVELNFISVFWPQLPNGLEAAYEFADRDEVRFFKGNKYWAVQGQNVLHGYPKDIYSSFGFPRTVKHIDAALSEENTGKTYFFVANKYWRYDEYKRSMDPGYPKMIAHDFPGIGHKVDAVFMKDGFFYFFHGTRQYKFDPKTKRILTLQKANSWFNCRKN

[11] = molecular target: Human recombinant MMP9 (Homo sapiens, UniProt P14780); experiment: MMP9 (Gelatinase B) inhibition, 14C gelatin release; assay type: biochemical; conditions: 37° C., 16 hours; read-out: MMP-9 inhibitory activity, IC50
[12] = molecular target: T2, MMP2 (Gelatinase A) (Homo sapiens, UniProt P08253); experiment: MMP2 (Gelatinase A) inhibition, 14C gelatin release; assay type: biochemical; conditions: 37° C., 16 hours; read-out: MMP-2 inhibitory activity, IC50
T2 sequence (P08253 110-660): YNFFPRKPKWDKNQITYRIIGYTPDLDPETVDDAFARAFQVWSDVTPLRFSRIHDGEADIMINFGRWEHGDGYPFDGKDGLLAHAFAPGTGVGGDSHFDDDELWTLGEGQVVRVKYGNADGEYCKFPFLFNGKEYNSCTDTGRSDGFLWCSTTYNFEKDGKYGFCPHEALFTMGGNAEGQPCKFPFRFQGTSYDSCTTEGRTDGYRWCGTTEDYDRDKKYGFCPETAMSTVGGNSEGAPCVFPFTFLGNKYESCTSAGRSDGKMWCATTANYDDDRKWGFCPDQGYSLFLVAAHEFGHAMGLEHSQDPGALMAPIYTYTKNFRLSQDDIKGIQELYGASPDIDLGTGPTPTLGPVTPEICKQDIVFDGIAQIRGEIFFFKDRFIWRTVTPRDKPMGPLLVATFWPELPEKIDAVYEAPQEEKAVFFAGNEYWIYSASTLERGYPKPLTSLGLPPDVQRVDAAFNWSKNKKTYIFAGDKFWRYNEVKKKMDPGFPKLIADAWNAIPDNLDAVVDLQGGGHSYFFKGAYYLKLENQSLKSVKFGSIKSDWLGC

[13] = molecular target: Human recombinant MMP3 (Homo sapiens, UniProt P08254); experiment: MMP3 (Stromelysin 1) inhibition, 14C casein release; assay type: biochemical; conditions: 37° C., 16 hours; read-out: MMP-3 inhibitory activity, IC50
[14] = molecular target: T3, Human recombinant MMP7 (Homo sapiens, UniProt P09237); experiment: MMP7 (Matrilysin) inhibition, 14C casein release; assay type: biochemical; conditions: 37° C., 16 hours; read-out: MMP-7 inhibitory activity, IC50
T3 sequence (P09237 95-267): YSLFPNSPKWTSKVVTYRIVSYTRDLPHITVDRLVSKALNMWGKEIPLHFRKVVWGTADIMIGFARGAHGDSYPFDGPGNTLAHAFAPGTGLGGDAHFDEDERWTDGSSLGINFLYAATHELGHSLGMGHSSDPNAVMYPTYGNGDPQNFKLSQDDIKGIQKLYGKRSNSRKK

Chain of Human recombinant MMP9 (P14780 94-707): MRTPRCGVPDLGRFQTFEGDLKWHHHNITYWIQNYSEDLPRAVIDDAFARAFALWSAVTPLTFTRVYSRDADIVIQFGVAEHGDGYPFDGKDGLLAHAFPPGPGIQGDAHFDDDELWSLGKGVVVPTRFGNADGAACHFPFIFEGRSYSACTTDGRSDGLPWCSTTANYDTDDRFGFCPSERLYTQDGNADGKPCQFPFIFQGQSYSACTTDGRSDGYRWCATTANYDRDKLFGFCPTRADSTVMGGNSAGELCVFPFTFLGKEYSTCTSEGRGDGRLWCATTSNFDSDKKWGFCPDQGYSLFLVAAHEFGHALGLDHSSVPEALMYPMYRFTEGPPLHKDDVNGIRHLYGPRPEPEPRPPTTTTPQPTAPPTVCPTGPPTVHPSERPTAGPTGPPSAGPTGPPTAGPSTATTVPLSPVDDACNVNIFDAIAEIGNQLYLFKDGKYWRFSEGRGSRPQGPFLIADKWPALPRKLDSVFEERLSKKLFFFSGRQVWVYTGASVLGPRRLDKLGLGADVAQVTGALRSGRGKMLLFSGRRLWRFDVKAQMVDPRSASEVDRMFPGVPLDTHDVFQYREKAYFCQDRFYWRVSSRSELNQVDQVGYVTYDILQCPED
Chain of Human recombinant MMP3 (P08254 100-477): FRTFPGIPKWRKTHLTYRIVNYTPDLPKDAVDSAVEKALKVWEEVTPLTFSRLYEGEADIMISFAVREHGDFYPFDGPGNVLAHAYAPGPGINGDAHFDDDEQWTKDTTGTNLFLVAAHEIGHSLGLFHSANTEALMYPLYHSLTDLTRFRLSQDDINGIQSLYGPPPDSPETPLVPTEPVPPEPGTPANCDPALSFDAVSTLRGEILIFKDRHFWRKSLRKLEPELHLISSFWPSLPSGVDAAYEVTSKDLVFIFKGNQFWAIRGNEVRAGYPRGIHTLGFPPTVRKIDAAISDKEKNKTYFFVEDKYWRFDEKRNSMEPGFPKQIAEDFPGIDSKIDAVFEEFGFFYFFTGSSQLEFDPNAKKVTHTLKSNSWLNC

IC50 [9] [µM]	IC50 [10] [µM]	IC50 [11] [µM]	IC50 [12] [µM]	IC50 [13] [µM]	IC50 [14]	SMILES	percent inhibition, MDA-MB-231 (Breast) ([2]; 1 ug/mL)	percent inhibition, MDA-MB-231 (Breast) ([2]; 10 ug/mL)	percent inhibition, MDA-MB-231 (Breast) ([2]; 25 ug/mL)	percent inhibition, C8161 (Melanoma) ([3]; 1 ug/mL)	percent inhibition, C8161 (Melanoma) ([3]; 10 ug/mL)	percent inhibition, C8161 (Melanoma) ([3]; 25 ug/mL)	percent inhibition, PC-3 ML (Prostrate) ([4]; 1 ug/mL)	percent inhibition, PC-3 ML (Prostrate) ([4]; 10 ug/mL)	percent inhibition, PC-3 ML (Prostrate) ([4]; 25 ug/mL)	percent inhibition, ARP-1 ([5]; 1 ug/mL)	percent inhibition, ARP-1 ([5]; 10 ug/mL)	percent inhibition, ARK ([6]; 1 ug/mL)	percent inhibition, ARK ([6]; 10 ug/mL)	percent inhibition, ARK ([6]; 25 ug/mL)	further results
						CC1c2ccc(N)c(O)c2C(=O)C2=C(O)C3(O)C(=O)C(C(N)=O)=C(O)C(N(C)C)C3C(O)C21 (stereo not shown) [Compound 2, 9-amino-6-deoxy-5-hydroxytetracycline H2SO4]	20%	15%	30^B percent	20^B percent	25^B percent	27^B percent	20%	8%	15%	10%	7%	20^B percent	9^B percent	10%	percent inhibition, RPMI-8226 (Multiple Myeloma) ([1]; 25 ug/mL, listed as 5): 36% and 42^B percent; percent inhibition, ARP-1 ([5]; 25 ug/mL): 6%; Surviving Number ([7]; 14 days post tumor implantation): 10; Surviving Number ([7]; 17 days post tumor implantation): 10; Surviving Number ([7]; 24 days post tumor implantation): 10; Surviving Number ([7]; 27 days post tumor implantation): 10; Surviving Number ([7]; 28 days post tumor implantation): 9; Surviving Number ([7]; 29 days post tumor implantation): 9; Surviving Number ([7]; 30 days post tumor implantation): 7; Surviving Number ([7]; 34 days post tumor implantation): 7; Surviving Number ([7]; 42 days post tumor implantation): 7; surviving number after tumor implantation (in words) ([7]; compared to the control group): marked increase in surviving number; body weight changes [8]: indistinguishable body weight changes
216	> 1000	136	> 1000	304	> 1000 µM	CC(C)Nc1ccc2c(c1O)C(=O)C1=C(O)C3(O)C(=O)C(C(N)=O)=C(O)C(N(C)C)C3C(O)C1C2C (stereo not shown) [Compound 3, 9-Isopropylamino-6-deoxy-5-hydroxytetracycline H2SO4]	+8%	+2%	12%	30^B percent	22^B percent	15^B percent	3%	+1%	25^B percent	+13%	+1%	+11%	+6%	+15%	percent inhibition, ARP-1 ([5]; 25 ug/mL): +16%
56	394	83	135	241	> 1000 µM and < 1000 µM	CC1c2ccc(N=[N+]=[N-])c(O)c2C(=O)C2=C(O)C3(O)C(=O)C(C(N)=O)=C(O)C(N(C)C)C3C(O)C21 (stereo not shown) [Compound 6, 9-Azido-6-deoxy-5-hydroxytetracycline H2SO4]			27^B percent and 42^B percent		33^B percent and 21^B percent	32^B percent and 33^B percent	21% and 13%	26% and 32^B percent	41^B percent and 30^B percent			12%	0%	8%	
29	372	28	337	154	507 µM	CN(C)c1cc([N+]#N)c(O)c2c1CC1CC3C(N(C)C)C(O)=C(C(N)=O)C(=O)C3(O)C(O)=C1C2=O (stereo not shown) [Compound 9, 7-dimethylamino-6-demethyl-6-deoxytetracycline-9-diazonium H2SO4 HCL]										+14%	+21^B percent	17^B percent	24^B percent	20^B percent	percent inhibition, RPMI-8226 (Multiple Myeloma) ([1]; 1 ug/mL): 21^B percent; percent inhibition, RPMI-8226 (Multiple Myeloma) ([1]; 10 ug/mL): 24^B percent; percent inhibition, RPMI-8226 (Multiple Myeloma) ([1]; 25 ug/mL): 28^B percent; percent inhibition, ARP-1 ([5]; 25 ug/mL): 7%
53	499	41	484	96	> 1000 µM	CN(C)c1cc(N=[N+]=[N-])c(O)c2c1CC1CC3C(N(C)C)C(O)=C(C(N)=O)C(=O)C3(O)C(O)=C1C2=O (stereo not shown) [Compound 10, 9-Azido-7-demethylamino-6-demethyl-6-deoxytetracycline H2SO4]					22% and 28^B percent							6%	+7%	1%	percent inhibition, RPMI-8226 (Multiple Myeloma) ([1]; 1 ug/mL): 3%; percent inhibition, RPMI-8226 (Multiple Myeloma) ([1]; 10 ug/mL): 5%; percent inhibition, RPMI-8226 (Multiple Myeloma) ([1]; 25 ug/mL): 29^B percent
14	126	64	48	206	> 1000 µM	CN(C)C1C(O)=C(C(N)=O)C(=O)C2(O)C(O)=C3C(=O)c4c(O)c(Br)cc(Br)c4CC3CC12 (stereo not shown) [Compound 13, 7,9-Dibromo-6-demethyl-6-deoxytetracycline H2SO4]	4%	0%	+9%	6%	12%	14%	8%	23^B percent	13%			2%	+7%	1%	percent inhibition, RPMI-8226 (Multiple Myeloma) ([1]; 1 ug/mL): +11%; percent inhibition, RPMI-8226 (Multiple Myeloma) ([1]; 10 ug/mL): +13%; percent inhibition, RPMI-8226 (Multiple Myeloma) ([1]; 25 ug/mL): +12%
